Assay results reported in PMC9758846, “Dinuclear and mononuclear metal(II) polypyridyl complexes against drug-sensitive and drug-resistant Plasmodium falciparum and their mode of action” (Malaria Journal, 2022).

Assays:
[1] = target: Pf3D7 20S proteasome caspase-like (C-L) site (Plasmodium falciparum, UniProt Q8I0U7); test: 20S proteasome inhibition assay using parasite lysate; type: biochemical; conditions: Suc-LLE-AMC, 30 min
Description: (§1) To harvest P. falciparum parasites, intraerythrocytic Pf3D7 and Pf5202 were collected in trophozoite and early schizont stages. Red blood cells were lysed in 0.15% (w/v) saponin lysis buffer for 10 min at 37 °C. After lysis, the parasite pellet was washed once with PBS buffer by centrifuging at 1600 rpm for 5 min. Saponin lysis buffer was added once again to remove all the red blood cells for 10 min at 37 °C, followed by washing with PBS twice and immediately used or kept at − 80 °C. To prepare parasite lysates for proteasome purification, parasite pellet was resuspended with 100 µl of pre-cooled Pierce™ RIPA buffer. A mild protein extraction method was used to prepare parasite extracts. The resuspended parasites were passed 20 times through a needle with a diameter of 0.4 mm in a syringe on ice to lyse the parasite. After 15 min centrifugation at 13,000 xg at 4 °C, the supernatant was removed. Protein concentration was determined by the Bradford assay. The activities of 3 proteolytic sites were determined by fluorescence assay using fluorogenic peptide substrates (Suc-LLVY-AMC for chymotrypsin-like, Boc-LRR-AMC for trypsin-like and Suc-LLE-AMC for caspase-like) Proteasome activities were determined by monitoring the substrate hydrolysis for 30 min at 37 °C with 340 nm excitation and 465 nm emission wavelength. Activity of each proteolytic site were calculated, and the IC50 values were determined from the non-linear regression analysis. VR23 proteasome inhibitor was used as positive control.

[2] = target: Pf5202 20S proteasome caspase-like (C-L) site (Plasmodium falciparum, UniProt Q8I0U7); test: as above; type: biochemical; conditions: Suc-LLE-AMC, 30 min
Chain of Pf5202 20S proteasome caspase-like (C-L) site (Q8I0U7 entry or part of it): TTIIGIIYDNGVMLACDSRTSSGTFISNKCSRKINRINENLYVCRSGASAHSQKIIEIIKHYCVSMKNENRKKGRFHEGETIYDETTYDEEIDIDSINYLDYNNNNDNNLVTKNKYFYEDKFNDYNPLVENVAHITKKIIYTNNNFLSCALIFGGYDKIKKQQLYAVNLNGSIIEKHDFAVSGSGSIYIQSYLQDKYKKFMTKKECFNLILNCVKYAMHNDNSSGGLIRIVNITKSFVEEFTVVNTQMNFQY
Chain of Pf5202 20S proteasome caspase-like (C-L) site (Q8I6T3 entry or part of it, further chain): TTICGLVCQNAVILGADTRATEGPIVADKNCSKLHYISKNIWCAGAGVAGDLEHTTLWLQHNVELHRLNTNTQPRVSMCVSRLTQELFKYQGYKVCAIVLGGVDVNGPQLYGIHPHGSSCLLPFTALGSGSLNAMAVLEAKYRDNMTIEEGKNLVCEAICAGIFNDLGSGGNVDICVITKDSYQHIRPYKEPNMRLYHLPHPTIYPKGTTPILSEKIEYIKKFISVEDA
Description: as §1

[3] = target: Pf5202 20S proteasome chymotrypsin-like (CT-L) site (Plasmodium falciparum, UniProt Q8IJT1); test: as above; type: biochemical; conditions: Suc-LLVY-AMC, 30 min
Chain of Pf5202 20S proteasome chymotrypsin-like (CT-L) site (Q8IJT1 entry or part of it): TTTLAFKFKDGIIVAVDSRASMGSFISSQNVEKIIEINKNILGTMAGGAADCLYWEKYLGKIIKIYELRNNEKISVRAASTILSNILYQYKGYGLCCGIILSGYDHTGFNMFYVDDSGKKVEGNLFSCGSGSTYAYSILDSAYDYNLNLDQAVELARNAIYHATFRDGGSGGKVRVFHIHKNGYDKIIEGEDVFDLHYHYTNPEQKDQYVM
Description: as §1

[4] = target: Pf3D7 20S proteasome chymotrypsin-like (CT-L) site (Plasmodium falciparum, UniProt Q8IJT1); test: as above; type: biochemical; conditions: Suc-LLVY-AMC, 30 min
Chain of Pf3D7 20S proteasome chymotrypsin-like (CT-L) site (Q8IJT1 entry or part of it): as above
Description: as §1

[5] = system: Pf5202; test: JC-1 mitochondrial membrane potential study; type: cell-based, Plasmodium falciparum; conditions: JC-1 red/green fluorescence ratio
Description: (§2) Mitochondrial membrane potential was investigated using a BD™ MitoScreen Flow Cytometry Mitochondrial Membrane Potential Detection JC-1 kit. In brief, parasitized red blood cells were treated with test compounds at desired concentrations for 12 and 48 h at 37 °C. After incubation, packed cells were stained as per manufacturer’s instructions. Dissipation in Δψm was measured by calculating the ratio between the red and green fluorescence.

[6] = system: Pf3D7; test: JC-1 mitochondrial membrane potential study; type: cell-based, Plasmodium falciparum; conditions: JC-1 red/green fluorescence ratio
Description: as §2

[7] = Solution stability by molar conductivity and visible absorptivity; type: physicochemical; conditions: 24, 48 and 72 h; room temperature
Description: Series of 10 mM stock solutions were prepared by dissolving the compounds in their respective solvents: phen and 4,4′-bipy in 95% ethanol; Cu(NO3)2·3H2O, Zn(NO3)2·6H2O, (1) and (2) in double distilled water; (3) and (4) in DMSO. All the stock solutions were further diluted with double distilled water to obtain 10 mL of 30 µM, 1 mM and 5 mM for their respective studies, viz. 30 µM for ultraviolet spectral studies, 1 mM for conductivity measurement and 5 mM for visible spectral studies. For the water-DMSO solutions of both complexes (3) and (4), the 30 µM, 1 mM and 5 mM solutions have […], 10% DMSO and 50% DMSO respectively. The absorbance at λmax and conductance were of the aqueous solutions were measured at 0, 24, 48 and 72 h. The molar absorptivity and molar conductivity of the metal(II) complex solutions and their precursors were then calculated.

Chain of Pf3D7 20S proteasome caspase-like (C-L) site (Q8I6T3 entry or part of it): as the sequence (Q8I6T3 entry or part of it, further chain) above
Chain of Pf3D7 20S proteasome caspase-like (C-L) site (Q8I0U7 entry or part of it): as the sequence (Q8I0U7 entry or part of it) above

Compound	IC50 [1] [µM]	IC50 [2] [µM]	IC50 [3] [µM]	IC50 [4] [µM]	Mitochondrial membrane potential (Δψm) ([5]; 12 h, 1 µM)	Mitochondrial membrane potential (Δψm) ([5]; 12 h, 5 µM)	Mitochondrial membrane potential (Δψm) ([5]; 12 h, 25 µM)	Mitochondrial membrane potential (Δψm) ([5]; 48 h, 1 µM)	Mitochondrial membrane potential (Δψm) ([5]; 48 h, 5 µM)	Mitochondrial membrane potential (Δψm) ([5]; 48 h, 25 µM)	Mitochondrial membrane potential (Δψm) ([6]; 12 h, 1 µM)	Mitochondrial membrane potential (Δψm) ([6]; 12 h, 5 µM)	Mitochondrial membrane potential (Δψm) ([6]; 12 h, 25 µM)	Mitochondrial membrane potential (Δψm) ([6]; 48 h, 1 µM)	Mitochondrial membrane potential (Δψm) ([6]; 48 h, 5 µM)	Mitochondrial membrane potential (Δψm) ([6]; 48 h, 25 µM)	Stability of aqueous solution (molar conductivity; for (1) also visible molar absorptivity) [7]
[Cu(phen)(NO3)(H2O)-4,4′-bipy-Cu(phen)(NO3)(H2O)](NO3)2 [Complex 3]	> 25	> 25	> 25	> 25	17.5 ± 2.2	16.6 ± 4.6	0.5 ± 0.1	19.2 ± 8.4	0.6 ± 0.1	0.1 ± 0.01	24.2 ± 1.6	49.3 ± 23.8	0.4 ± 0.2	45.0 ± 26.4	4.7 ± 2.6	0.1 ± 0.04	–
O.O=[N+]([O-])[O-].O=[N+]([O-])[O-].[Cu+2].c1cnc2c(c1)ccc1cccnc12.c1cnc2c(c1)ccc1cccnc12 [Complex 1, [Cu(phen)2](NO3)2·H2O]	> 25	> 25	> 25	> 25	18.9 ± 2.8	17.5 ± 3.5	1.1 ± 0.6	10.4 ± 3.1	6.0 ± 1.8	1.2 ± 0.1	17.2 ± 12.8	29.7 ± 12.1	1.9 ± 1.1	41.1 ± 5.1	43.6 ± 15.0	0.5 ± 0.3	remains practically unchanged
